How the values were obtained:
Assay type in all cases: cell-based
Conditions in all cases: compounds at 50 nM and 500 nM
[1] = biological target: T1, CK1α (Homo sapiens, UniProt P48729+Q96SW2); assay: Western blot degradation of CK1α in hPBMCs (24 h)
T1 construct: The supernatant was aspirated as the extracted total cell protein; endogenous in cells; host or cells: human peripheral blood mononuclear cells (hPBMCs)
In short: (§1)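 Western blot densitometry after 24 h treatment of human PBMCs (1×10^6 cells/mL) with 50 nM or 500 nM compound. Remaining target (%) = band intensity over internal-control band, normalized to DMSO; degradation = 1 − remaining; DC50 is the concentration giving half the DMSO band signal.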

[2] = biological target: T2, GSPT1 (Homo sapiens, UniProt P15170+Q96SW2); assay: Western blot degradation of GSPT1 in hPBMCs (24 h)
T2 construct: The supernatant was aspirated as the extracted total cell protein; endogenous in cells; host or cells: human peripheral blood mononuclear cells (hPBMCs)
In short: as §1

[3] = biological target: T3, IKZF2 (Homo sapiens, UniProt Q96SW2+Q9UKS7); assay: Western blot degradation of IKZF2 in hPBMCs (24 h)
T3 construct: The supernatant was aspirated as the extracted total cell protein; endogenous in cells; host or cells: human peripheral blood mononuclear cells (hPBMCs)
In short: as §1

[4] = biological target: T4, IKZF3 (Homo sapiens, UniProt Q96SW2+Q9UKT9); assay: Western blot degradation of IKZF3 in hPBMCs (24 h)
T4 construct: The supernatant was aspirated as the extracted total cell protein; endogenous in cells; host or cells: human peripheral blood mononuclear cells (hPBMCs)
In short: as §1

[5] = biological target: T5, WEE1 (Homo sapiens, UniProt P30291+Q96SW2); assay: Western blot degradation of WEE1 in hPBMCs (24 h)
T5 construct: The supernatant was aspirated as the extracted total cell protein; endogenous in cells; host or cells: human peripheral blood mononuclear cells (hPBMCs)
In short: as §1

[6] = biological target: T6, IKZF1 (Homo sapiens, UniProt Q13422+Q96SW2); assay: Western blot degradation of IKZF1 in hPBMCs (24 h)
T6 construct: The supernatant was aspirated as the extracted total cell protein; endogenous in cells; host or cells: human peripheral blood mononuclear cells (hPBMCs)
In short: as §1

T5 sequence (P30291 whole entry): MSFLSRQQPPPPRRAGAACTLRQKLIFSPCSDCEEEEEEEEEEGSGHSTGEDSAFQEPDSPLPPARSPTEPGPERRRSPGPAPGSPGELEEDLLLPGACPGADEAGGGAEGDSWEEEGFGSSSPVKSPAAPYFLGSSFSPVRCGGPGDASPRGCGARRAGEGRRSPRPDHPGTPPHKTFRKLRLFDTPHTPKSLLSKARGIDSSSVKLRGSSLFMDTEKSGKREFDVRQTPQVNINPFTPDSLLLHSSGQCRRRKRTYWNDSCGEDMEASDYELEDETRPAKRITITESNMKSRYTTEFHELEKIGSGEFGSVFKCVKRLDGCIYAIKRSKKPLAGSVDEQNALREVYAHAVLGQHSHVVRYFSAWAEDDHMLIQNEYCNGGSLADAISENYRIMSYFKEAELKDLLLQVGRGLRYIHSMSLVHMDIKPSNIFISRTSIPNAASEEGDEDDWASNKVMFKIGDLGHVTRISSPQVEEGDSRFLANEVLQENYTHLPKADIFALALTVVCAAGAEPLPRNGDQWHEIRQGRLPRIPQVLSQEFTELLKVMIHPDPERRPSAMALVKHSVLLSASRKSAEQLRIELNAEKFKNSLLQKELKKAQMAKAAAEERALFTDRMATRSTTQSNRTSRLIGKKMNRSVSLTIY
T5 sequence (Q96SW2 whole entry): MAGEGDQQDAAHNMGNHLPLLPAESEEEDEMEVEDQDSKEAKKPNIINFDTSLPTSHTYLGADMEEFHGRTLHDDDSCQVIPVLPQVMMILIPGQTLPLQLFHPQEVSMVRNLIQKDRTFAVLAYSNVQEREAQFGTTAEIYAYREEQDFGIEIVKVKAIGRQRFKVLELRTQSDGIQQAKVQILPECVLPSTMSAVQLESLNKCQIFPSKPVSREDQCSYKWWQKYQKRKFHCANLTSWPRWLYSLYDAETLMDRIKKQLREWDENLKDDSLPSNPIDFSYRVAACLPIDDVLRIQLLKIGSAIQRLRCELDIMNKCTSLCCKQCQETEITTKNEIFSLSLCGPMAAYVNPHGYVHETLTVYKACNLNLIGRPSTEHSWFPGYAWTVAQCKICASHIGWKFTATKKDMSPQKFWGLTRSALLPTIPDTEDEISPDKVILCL
T5 sequence (Q16531 whole entry partner): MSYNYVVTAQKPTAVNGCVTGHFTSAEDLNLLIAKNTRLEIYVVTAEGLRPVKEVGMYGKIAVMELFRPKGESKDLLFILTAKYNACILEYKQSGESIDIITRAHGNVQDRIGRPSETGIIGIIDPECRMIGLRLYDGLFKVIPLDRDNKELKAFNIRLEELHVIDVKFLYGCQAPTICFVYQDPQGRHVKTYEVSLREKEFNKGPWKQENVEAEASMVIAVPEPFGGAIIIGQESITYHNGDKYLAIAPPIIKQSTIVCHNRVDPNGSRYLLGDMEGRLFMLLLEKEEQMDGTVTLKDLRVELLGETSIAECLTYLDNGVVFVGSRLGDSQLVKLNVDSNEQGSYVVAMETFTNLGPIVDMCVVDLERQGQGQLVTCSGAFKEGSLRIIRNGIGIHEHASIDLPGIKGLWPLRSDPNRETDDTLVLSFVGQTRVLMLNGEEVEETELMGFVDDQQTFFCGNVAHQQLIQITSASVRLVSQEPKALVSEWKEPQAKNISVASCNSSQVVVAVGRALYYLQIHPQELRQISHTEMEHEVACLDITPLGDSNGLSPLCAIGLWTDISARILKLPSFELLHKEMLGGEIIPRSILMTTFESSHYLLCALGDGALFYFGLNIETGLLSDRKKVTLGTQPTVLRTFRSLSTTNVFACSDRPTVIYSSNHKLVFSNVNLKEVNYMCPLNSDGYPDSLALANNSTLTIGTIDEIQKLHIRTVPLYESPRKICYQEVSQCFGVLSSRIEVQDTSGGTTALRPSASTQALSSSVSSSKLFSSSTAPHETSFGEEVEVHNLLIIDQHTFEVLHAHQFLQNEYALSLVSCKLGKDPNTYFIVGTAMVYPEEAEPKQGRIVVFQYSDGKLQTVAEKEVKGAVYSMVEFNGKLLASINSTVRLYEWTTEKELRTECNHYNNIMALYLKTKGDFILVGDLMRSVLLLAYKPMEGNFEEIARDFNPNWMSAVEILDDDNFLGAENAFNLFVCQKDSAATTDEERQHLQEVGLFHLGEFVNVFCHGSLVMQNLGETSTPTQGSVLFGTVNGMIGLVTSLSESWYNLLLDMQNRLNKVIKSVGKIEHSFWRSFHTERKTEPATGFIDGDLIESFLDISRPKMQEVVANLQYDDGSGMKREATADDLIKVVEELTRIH
T4 sequence (Q9UKT9 whole entry): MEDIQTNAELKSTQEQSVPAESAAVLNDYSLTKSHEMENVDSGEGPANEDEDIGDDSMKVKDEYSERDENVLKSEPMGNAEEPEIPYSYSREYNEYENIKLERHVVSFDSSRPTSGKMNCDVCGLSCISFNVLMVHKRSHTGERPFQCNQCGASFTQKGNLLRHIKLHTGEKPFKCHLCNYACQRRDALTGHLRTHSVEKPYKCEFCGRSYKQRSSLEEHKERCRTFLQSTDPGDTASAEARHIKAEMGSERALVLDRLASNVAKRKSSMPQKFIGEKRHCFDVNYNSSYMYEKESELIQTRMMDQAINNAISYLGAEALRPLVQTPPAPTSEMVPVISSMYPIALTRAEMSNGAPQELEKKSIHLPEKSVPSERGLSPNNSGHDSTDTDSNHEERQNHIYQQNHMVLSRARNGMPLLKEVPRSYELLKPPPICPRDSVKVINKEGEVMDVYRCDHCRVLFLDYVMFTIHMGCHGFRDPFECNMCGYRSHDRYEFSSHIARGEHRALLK
T4 sequence (Q96SW2 whole entry): as the sequence (Q96SW2 whole entry) above
T4 sequence (Q16531 whole entry partner): as the sequence (Q16531 whole entry partner) above
T6 sequence (Q13422 whole entry): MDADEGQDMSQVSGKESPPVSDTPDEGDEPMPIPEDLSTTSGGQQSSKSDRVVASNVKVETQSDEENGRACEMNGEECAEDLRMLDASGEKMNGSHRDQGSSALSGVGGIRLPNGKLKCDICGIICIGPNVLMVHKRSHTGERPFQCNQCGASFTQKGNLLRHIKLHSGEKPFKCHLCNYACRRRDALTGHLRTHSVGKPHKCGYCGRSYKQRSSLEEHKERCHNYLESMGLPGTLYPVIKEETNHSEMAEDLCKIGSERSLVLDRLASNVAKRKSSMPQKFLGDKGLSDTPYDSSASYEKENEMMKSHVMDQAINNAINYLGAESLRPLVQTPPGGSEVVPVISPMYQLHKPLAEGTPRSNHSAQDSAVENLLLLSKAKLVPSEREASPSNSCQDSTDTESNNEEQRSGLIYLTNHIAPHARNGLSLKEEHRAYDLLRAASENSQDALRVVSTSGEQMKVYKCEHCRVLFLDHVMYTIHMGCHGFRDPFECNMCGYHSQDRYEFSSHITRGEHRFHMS
T6 sequence (Q96SW2 whole entry): as the sequence (Q96SW2 whole entry) above
T6 sequence (Q16531 whole entry partner): as the sequence (Q16531 whole entry partner) above
T2 sequence (P15170 whole entry): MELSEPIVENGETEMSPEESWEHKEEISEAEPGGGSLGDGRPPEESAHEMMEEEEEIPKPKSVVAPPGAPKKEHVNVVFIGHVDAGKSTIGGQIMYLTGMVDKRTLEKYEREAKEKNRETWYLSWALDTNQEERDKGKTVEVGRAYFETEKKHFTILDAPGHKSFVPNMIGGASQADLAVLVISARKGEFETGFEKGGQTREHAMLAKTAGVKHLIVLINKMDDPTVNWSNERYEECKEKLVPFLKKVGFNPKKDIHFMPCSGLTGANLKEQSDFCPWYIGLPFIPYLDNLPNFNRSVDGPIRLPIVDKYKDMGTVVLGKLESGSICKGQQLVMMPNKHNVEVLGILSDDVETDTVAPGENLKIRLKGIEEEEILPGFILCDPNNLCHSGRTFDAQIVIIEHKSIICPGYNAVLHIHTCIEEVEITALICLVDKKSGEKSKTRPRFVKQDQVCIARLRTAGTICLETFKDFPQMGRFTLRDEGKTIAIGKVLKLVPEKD
T2 sequence (Q96SW2 whole entry): as the sequence (Q96SW2 whole entry) above
T2 sequence (Q16531 whole entry partner): as the sequence (Q16531 whole entry partner) above
T3 sequence (Q9UKS7 whole entry): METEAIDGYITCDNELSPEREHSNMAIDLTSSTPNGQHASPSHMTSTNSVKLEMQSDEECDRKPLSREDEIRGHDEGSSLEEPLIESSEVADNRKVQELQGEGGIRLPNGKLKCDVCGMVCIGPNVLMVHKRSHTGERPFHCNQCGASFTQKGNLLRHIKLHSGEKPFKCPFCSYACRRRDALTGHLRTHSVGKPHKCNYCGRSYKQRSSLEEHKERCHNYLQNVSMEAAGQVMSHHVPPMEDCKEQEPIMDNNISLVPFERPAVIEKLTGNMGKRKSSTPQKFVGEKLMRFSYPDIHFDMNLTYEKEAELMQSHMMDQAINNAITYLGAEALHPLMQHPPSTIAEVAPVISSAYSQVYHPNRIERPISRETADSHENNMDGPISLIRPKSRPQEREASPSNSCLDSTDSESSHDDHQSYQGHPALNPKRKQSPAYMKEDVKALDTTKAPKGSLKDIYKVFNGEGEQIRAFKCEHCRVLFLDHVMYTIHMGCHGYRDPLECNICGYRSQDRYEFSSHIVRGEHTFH
T3 sequence (Q96SW2 whole entry): as the sequence (Q96SW2 whole entry) above
T3 sequence (Q16531 whole entry partner): as the sequence (Q16531 whole entry partner) above

O=C1CCN(N2Cc3cc(CN4CCN(c5c(F)cccc5F)CC4)ccc3C2=O)C(=O)N1 [GT-06780, 1-(5-((4-(2,6-difluorophenyl)piperazin-1-yl)methyl)-1-oxoisoindolin-2-yl)dihydropyrimidine-2,4(1H,3H)-dione]
CK1α substrate protein remaining % [1]: A (0% ≤ substrate protein remaining % ≤80%)
GSPT1 substrate protein remaining % [2]: B (80%< substrate protein remaining % ≤100%)
IKZF2 substrate protein remaining % [3]: B (80%< substrate protein remaining % ≤100%)
IKZF3 substrate protein remaining % [4]: B (80%< substrate protein remaining % ≤100%)
WEE1 substrate protein remaining % [5]: B (80%< substrate protein remaining % ≤100%)
IKZF1 substrate protein remaining % [6]: B (80%< substrate protein remaining % ≤100%)

O=C1CCN(N2Cc3cc(CN4CCN(c5ccc(F)c(F)c5)CC4)ccc3C2=O)C(=O)N1 [GT-06781, 1-(5-((4-(3,4-difluorophenyl)piperazin-1-yl)methyl)-1-oxoisoindolin-2-yl)dihydropyrimidine-2,4(1H,3H)-dione]
CK1α substrate protein remaining % [1]: A (0% ≤ substrate protein remaining % ≤80%)
GSPT1 substrate protein remaining % [2]: A (0% ≤ substrate protein remaining % ≤80%)
IKZF2 substrate protein remaining % [3]: B (80%< substrate protein remaining % ≤100%)
IKZF3 substrate protein remaining % [4]: B (80%< substrate protein remaining % ≤100%)
WEE1 substrate protein remaining % [5]: B (80%< substrate protein remaining % ≤100%)
IKZF1 substrate protein remaining % [6]: B (80%< substrate protein remaining % ≤100%)

O=C1CCN(N2Cc3cc(CN4CCN(c5cc(F)cc(F)c5)CC4)ccc3C2=O)C(=O)N1 [GT-06782, 1-(5-((4-(3,5-difluorophenyl)piperazin-1-yl)methyl)-1-oxoisoindolin-2-yl)dihydropyrimidine-2,4(1H,3H)-dione]
CK1α substrate protein remaining % [1]: A (0% ≤ substrate protein remaining % ≤80%)
GSPT1 substrate protein remaining % [2]: A (0% ≤ substrate protein remaining % ≤80%)
IKZF2 substrate protein remaining % [3]: B (80%< substrate protein remaining % ≤100%)
IKZF3 substrate protein remaining % [4]: B (80%< substrate protein remaining % ≤100%)
WEE1 substrate protein remaining % [5]: B (80%< substrate protein remaining % ≤100%)
IKZF1 substrate protein remaining % [6]: B (80%< substrate protein remaining % ≤100%)

O=C1CCN(N2C(=O)c3ccc(CN4CCN(c5ccc(Cl)cc5)CC4)cc3C2=O)C(=O)N1 [GT-06783, 5-((4-(4-chlorophenyl)piperazin-1-yl)methyl)-2-(2,4-dioxotetrahydropyrimidin-1(2H)-yl)isoindoline-1,3-dione]
CK1α substrate protein remaining % [1]: B (80%< substrate protein remaining % ≤100%)
GSPT1 substrate protein remaining % [2]: B (80%< substrate protein remaining % ≤100%)
IKZF2 substrate protein remaining % [3]: B (80%< substrate protein remaining % ≤100%)
IKZF3 substrate protein remaining % [4]: A (0% ≤ substrate protein remaining % ≤80%)
WEE1 substrate protein remaining % [5]: B (80%< substrate protein remaining % ≤100%)
IKZF1 substrate protein remaining % [6]: B (80%< substrate protein remaining % ≤100%)

O=C1CCN(N2C(=O)c3ccc(CN4CCN(c5ccc(Br)cc5)CC4)cc3C2=O)C(=O)N1 [GT-06784, 5-((4-(4-bromophenyl)piperazin-1-yl)methyl)-2-(2,4-dioxotetrahydropyrimidin-1(2H)-yl)isoindoline-1,3-dione]
CK1α substrate protein remaining % [1]: A (0% ≤ substrate protein remaining % ≤80%)
GSPT1 substrate protein remaining % [2]: B (80%< substrate protein remaining % ≤100%)
IKZF2 substrate protein remaining % [3]: B (80%< substrate protein remaining % ≤100%)
IKZF3 substrate protein remaining % [4]: B (80%< substrate protein remaining % ≤100%)
WEE1 substrate protein remaining % [5]: B (80%< substrate protein remaining % ≤100%)
IKZF1 substrate protein remaining % [6]: B (80%< substrate protein remaining % ≤100%)

O=C1CCN(N2C(=O)c3ccc(CN4CCN(c5cccc(F)c5F)CC4)cc3C2=O)C(=O)N1 [GT-06793, 5-((4-(2,3-difluorophenyl)piperazin-1-yl)methyl)-2-(2,4-dioxotetrahydropyrimidin-1(2H)-yl)isoindoline-1,3-dione]
CK1α substrate protein remaining % [1]: B (80%< substrate protein remaining % ≤100%)
GSPT1 substrate protein remaining % [2]: B (80%< substrate protein remaining % ≤100%)
IKZF2 substrate protein remaining % [3]: A (0% ≤ substrate protein remaining % ≤80%)
IKZF3 substrate protein remaining % [4]: B (80%< substrate protein remaining % ≤100%)
WEE1 substrate protein remaining % [5]: B (80%< substrate protein remaining % ≤100%)
IKZF1 substrate protein remaining % [6]: B (80%< substrate protein remaining % ≤100%)

O=C1CCN(N2C(=O)c3ccc(CN4CCN(c5c(F)cccc5F)CC4)cc3C2=O)C(=O)N1 [GT-06796, 5-((4-(2,6-difluorophenyl)piperazin-1-yl)methyl)-2-(2,4-dioxotetrahydropyrimidin-1(2H)-yl)isoindoline-1,3-dione]
CK1α substrate protein remaining % [1]: B (80%< substrate protein remaining % ≤100%)
GSPT1 substrate protein remaining % [2]: B (80%< substrate protein remaining % ≤100%)
IKZF2 substrate protein remaining % [3]: B (80%< substrate protein remaining % ≤100%)
IKZF3 substrate protein remaining % [4]: B (80%< substrate protein remaining % ≤100%)
WEE1 substrate protein remaining % [5]: A (0% ≤ substrate protein remaining % ≤80%)
IKZF1 substrate protein remaining % [6]: B (80%< substrate protein remaining % ≤100%)

O=C1CCN(N2C(=O)c3ccc(CN4CCN(c5ccc(F)c(F)c5)CC4)cc3C2=O)C(=O)N1 [GT-06797, 5-((4-(3,4-difluorophenyl)piperazin-1-yl)methyl)-2-(2,4-dioxotetrahydropyrimidin-1(2H)-yl)isoindoline-1,3-dione]
CK1α substrate protein remaining % [1]: B (80%< substrate protein remaining % ≤100%)
GSPT1 substrate protein remaining % [2]: B (80%< substrate protein remaining % ≤100%)
IKZF2 substrate protein remaining % [3]: B (80%< substrate protein remaining % ≤100%)
IKZF3 substrate protein remaining % [4]: B (80%< substrate protein remaining % ≤100%)
WEE1 substrate protein remaining % [5]: A (0% ≤ substrate protein remaining % ≤80%)
IKZF1 substrate protein remaining % [6]: B (80%< substrate protein remaining % ≤100%)

O=C1CCN(N2C(=O)c3ccc(CN4CCC(c5ccccc5)CC4)cc3C2=O)C(=O)N1 [GT-06803, 2-(2,4-dioxotetrahydropyrimidin-1(2H)-yl)-5-((4-phenylpiperidin-1-yl)methyl)isoindoline-1,3-dione]
CK1α substrate protein remaining % [1]: A (0% ≤ substrate protein remaining % ≤80%)
GSPT1 substrate protein remaining % [2]: B (80%< substrate protein remaining % ≤100%)
IKZF2 substrate protein remaining % [3]: B (80%< substrate protein remaining % ≤100%)
IKZF3 substrate protein remaining % [4]: B (80%< substrate protein remaining % ≤100%)
WEE1 substrate protein remaining % [5]: B (80%< substrate protein remaining % ≤100%)
IKZF1 substrate protein remaining % [6]: B (80%< substrate protein remaining % ≤100%)

O=C1CCN(N2C(=O)c3ccc(CN4CCC(c5cccc(Br)c5)CC4)cc3C2=O)C(=O)N1 [GT-06804, 5-((4-(3-bromophenyl)piperidin-1-yl)methyl)-2-(2,4-dioxotetrahydropyrimidin-1(2H)-yl)isoindoline-1,3-dione]
CK1α substrate protein remaining % [1]: A (0% ≤ substrate protein remaining % ≤80%)
GSPT1 substrate protein remaining % [2]: B (80%< substrate protein remaining % ≤100%)
IKZF2 substrate protein remaining % [3]: B (80%< substrate protein remaining % ≤100%)
IKZF3 substrate protein remaining % [4]: B (80%< substrate protein remaining % ≤100%)
WEE1 substrate protein remaining % [5]: B (80%< substrate protein remaining % ≤100%)
IKZF1 substrate protein remaining % [6]: B (80%< substrate protein remaining % ≤100%)

O=C1CCN(N2C(=O)c3ccc(CN4CCC(c5ccc(Br)cc5)CC4)cc3C2=O)C(=O)N1 [GT-06805, 5-((4-(4-bromophenyl)piperidin-1-yl)methyl)-2-(2,4-dioxotetrahydropyrimidin-1(2H)-yl)isoindoline-1,3-dione]
CK1α substrate protein remaining % [1]: A (0% ≤ substrate protein remaining % ≤80%)
GSPT1 substrate protein remaining % [2]: B (80%< substrate protein remaining % ≤100%)
IKZF2 substrate protein remaining % [3]: B (80%< substrate protein remaining % ≤100%)
IKZF3 substrate protein remaining % [4]: B (80%< substrate protein remaining % ≤100%)
WEE1 substrate protein remaining % [5]: B (80%< substrate protein remaining % ≤100%)
IKZF1 substrate protein remaining % [6]: B (80%< substrate protein remaining % ≤100%)

O=C1CCN(N2C(=O)c3ccc(CN4CCC(c5ccccc5F)CC4)cc3C2=O)C(=O)N1 [GT-06877, 2-(2,4-dioxotetrahydropyrimidin-1(2H)-yl)-5-((4-(2-fluorophenyl)piperidin-1-yl)methyl)isoindoline-1,3-dione]
CK1α substrate protein remaining % [1]: A (0% ≤ substrate protein remaining % ≤80%)
GSPT1 substrate protein remaining % [2]: B (80%< substrate protein remaining % ≤100%)
IKZF2 substrate protein remaining % [3]: B (80%< substrate protein remaining % ≤100%)
IKZF3 substrate protein remaining % [4]: B (80%< substrate protein remaining % ≤100%)
WEE1 substrate protein remaining % [5]: B (80%< substrate protein remaining % ≤100%)
IKZF1 substrate protein remaining % [6]: B (80%< substrate protein remaining % ≤100%)

O=C1CCN(N2C(=O)c3ccc(CN4CCC(c5ccc(F)cc5)CC4)cc3C2=O)C(=O)N1 [GT-06878, 2-(2,4-dioxotetrahydropyrimidin-1(2H)-yl)-5-((4-(4-fluorophenyl)piperidin-1-yl)methyl)isoindoline-1,3-dione]
CK1α substrate protein remaining % [1]: A (0% ≤ substrate protein remaining % ≤80%)
GSPT1 substrate protein remaining % [2]: A (0% ≤ substrate protein remaining % ≤80%)
IKZF2 substrate protein remaining % [3]: B (80%< substrate protein remaining % ≤100%)
IKZF3 substrate protein remaining % [4]: B (80%< substrate protein remaining % ≤100%)
WEE1 substrate protein remaining % [5]: B (80%< substrate protein remaining % ≤100%)
IKZF1 substrate protein remaining % [6]: B (80%< substrate protein remaining % ≤100%)
